Results taken from patent publication US7560229B2, “Methods of use of the enzymes of mycothiol synthesis” (priority 2002, dated 2009).
Values joined by “and” are separate entries in the source; they are usually repeats but may differ in a detail not shown here. Equal entries are not always repeated. Where two headings read alike, the source gives them in different places. Marks after values point to notes of the source that are not given here.

Assays:
[1] = target: T1, M. tuberculosis MshC (Cys:GlcN-Ins ligase) (Mycobacterium tuberculosis, UniProt P9WJM9); format: biochemical; details: 0.1-5 mM, FIG. 16
[2] = target: T1, M. tuberculosis MshC (Cys:GlcN-Ins ligase); details: for activity as alternative substrate to Cys: 80 μM to 1.6 mM
[3] = target: T1, M. tuberculosis MshC (Cys:GlcN-Ins ligase); format: biochemical
[4] = target: T1, M. tuberculosis MshC (Cys:GlcN-Ins ligase); format: biochemical; details: 2, 10, 50 or 100 μM zinc chloride, FIG. 16
[5] = test system: M. smegmatis MSH deficient mutants (Tn1, Tn2, I64); format: cell-based
N[C@@H](CS)C(=O)O = assay: purified protein, by the assay type; details: 37.0 °C

T1 sequence (P9WJM9 whole entry): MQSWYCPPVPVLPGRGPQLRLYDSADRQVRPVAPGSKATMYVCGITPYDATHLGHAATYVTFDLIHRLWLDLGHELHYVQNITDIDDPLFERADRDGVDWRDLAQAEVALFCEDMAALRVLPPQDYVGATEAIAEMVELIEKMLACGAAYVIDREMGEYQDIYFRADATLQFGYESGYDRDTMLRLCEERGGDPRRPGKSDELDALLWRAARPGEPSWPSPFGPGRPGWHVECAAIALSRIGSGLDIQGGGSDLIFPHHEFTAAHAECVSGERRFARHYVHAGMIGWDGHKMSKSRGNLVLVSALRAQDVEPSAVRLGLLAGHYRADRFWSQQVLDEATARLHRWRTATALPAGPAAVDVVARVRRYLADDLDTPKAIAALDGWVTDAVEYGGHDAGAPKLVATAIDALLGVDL

`c1cnc2c(c1)ccc1cccnc12` [1,10-phenanthroline] was tested, and the “effect of metal chelation on enzyme activity” value [1] was “no significant loss of activity”.

For `Nc1ncnc2c1ncn2[C@@H]1O[C@H](COP(=O)(O)OP(=O)(O)OP(=O)(O)O)[C@@H](O)[C@H]1O` [ATP], the “decline of reaction rate” value [2] was 2.2 fold.

`CC(=O)N[C@@H](CS)C(=O)O` [AcCys, N-acetylcysteine] was tested, and the “inhibition of ligase activity” value [3] was “minor inhibition”, the relative spec. act. [2] was “≦0.24” and the “activity as alternative substrate to Cys” value [2] was “Nor was significant activity detected”.

In the case of `N[C@@H](CS)C(=O)O` [Cys, L-cysteine], the Specific activity [2] is reported as “^cSpecific activity 108 nmol min^−1 mg^−1”, the “apparent Vmax (L-Cys varied)” value [2] is reported as 1450 ± 200 nmol/min/mg and the relative spec. act. [2] is reported as “(100)^c”.

Molecule `N[C@@H](CS)C(=O)N[C@H]1[C@@H](OC2[C@H](O)[C@H](O)C(O)[C@H](O)[C@H]2O)O[C@H](CO)[C@@H](O)[C@@H]1O` (stereo partly drawn) [Cys-GlcN-Ins, 1D-myo-inosityl 2-L-cysteinylamido-2-deoxy-α-D-glucopyranoside] has an inhibition [3] of under 1.0%.

`N[C@H](CS)C(=O)O` [D-Cys] was tested, and the “% inhibition” value [3] was 15 ± 8%, the “inhibition of ligase activity” value [3] was “Only very minor inhibition” and the relative spec. act. [2] was “≦0.7”. The “activity as alternative substrate to Cys” value [2] was “poor substrate”.

In the case of `N[C@H]1C(O)O[C@H](CO)[C@@H](O)[C@@H]1O` (stereo partly drawn) [D-GlcN, D-glucosamine], the “activity relative to GlcN-Ins” value [2] is reported as about 1% and the relative spec. act. [2] is reported as 1.2.

In the case of `N[C@H]1[C@@H](OC2[C@H](O)[C@H](O)C(O)[C@H](O)[C@H]2O)O[C@H](CO)[C@@H](O)[C@@H]1O` (stereo partly drawn) [GlcN-Ins, 1D-myo-inosityl 2-amino-2-deoxy-α-D-glucopyranoside], the “apparent Vmax (GlcN-Ins varied)” value [2] is reported as 1160 ± 120 nmol/min/mg and the Km ([2]; read-out: apparent Km for GlcN-Ins) is reported as 280 ± 43 µM.

`C[C@H](N)C(=O)O` [L-alanine] was tested, and the “inhibition of ligase activity” value [3] was “Only very minor inhibition”, the relative spec. act. [2] was “≦0.016” and the “activity as alternative substrate to Cys” value [2] was “Nor was significant activity detected”.

For `N[C@@H](CCS)C(=O)O` [L-homocysteine], the “inhibition of ligase activity” value [3] was “Only very minor inhibition”, the relative spec. act. [2] was “≦0.2” and the “activity as alternative substrate to Cys” value [2] was “Nor was significant activity detected”.

For `N[C@@H](CO)C(=O)O` [L-serine], the “inhibition of ligase activity” value [3] was “Only very minor inhibition”, the relative spec. act. [2] was “≦0.008” and the “activity as alternative substrate to Cys” value [2] was “Nor was significant activity detected”.

With `CC[C@H](N)C(=O)O` [L-α-aminobutyric acid] the “inhibition of ligase activity” value [3] was “Only very minor inhibition”.

With `CC(=O)N[C@@H](CS)C(=O)N[C@H]1[C@@H](OC2[C@H](O)[C@H](O)C(O)[C@H](O)[C@H]2O)O[C@H](CO)[C@@H](O)[C@@H]1O` (stereo partly drawn) [MSH, 1D-myo-inosityl 2-(N-acetylcysteinyl)amido-2-deoxy-α-D-glucopyranoside] the “% inhibition” value [3] was 4 ± 3% and 7 ± 5% and the “inhibition of ligase activity” value ([3]; 1 and 5 mM, physiologic levels) was “minimal inhibition”.

For `[Cl-].[Cl-].[Zn+2]` [Zn^2+, zinc chloride], the “effect of supplementation on enzyme activity” value [4] was “loss in activity”.

`NCCS` [cysteamine] was tested, and the “inhibition of ligase activity” value [3] was “best inhibitor”, the reduction in rate [3] was 3 fold and the relative spec. act. [2] was “≦0.16”. For the same molecule, the “activity as alternative substrate to Cys” value [2] was “Neither β-mercaptopropionic acid nor cysteamine, derived from Cys by removal of the amino and carboxyl groups, respectively, produced evidence of reaction”.

In the case of `CC[C@@H](CO)NCCN[C@@H](CC)CO` [ethambutol], the “difference in sensitivity between mutants” value [5] is reported as “no significant difference”.

`NC(=O)c1cnccn1` [pyrazinamide] was tested, and the “difference in sensitivity between mutants” value [5] was “no significant difference”.

`O=C(O)CCS` [β-mercaptopropionate, β-mercaptopropionic acid] was tested, and the “inhibition of ligase activity” value [3] was “minor inhibition”, the relative spec. act. [2] was “≦0.004” and the “activity as alternative substrate to Cys” value [2] was “Neither β-mercaptopropionic acid nor cysteamine, derived from Cys by removal of the amino and carboxyl groups, respectively, produced evidence of reaction”.

“M. tuberculosis MshC (Cys:GlcN-Ins ligase) (Mycobacterium tuberculosis H37Rv)” was tested, and the Km (N[C@@H](CS)C(=O)O) was 70 ± 15 µM and 85 ± 20 µM.
